Among the data in patent US10414740B2, “Glutaminase inhibitors and method of use” (Agios Pharmaceuticals, Inc., priority 2012, dated 2019) are IC50 values, retold here.

The target in the assay is T1, glutaminase (GAC) (Homo sapiens, UniProt O94925).
T1 sequence (O94925 55-598 isoform O94925-3 limits assumed): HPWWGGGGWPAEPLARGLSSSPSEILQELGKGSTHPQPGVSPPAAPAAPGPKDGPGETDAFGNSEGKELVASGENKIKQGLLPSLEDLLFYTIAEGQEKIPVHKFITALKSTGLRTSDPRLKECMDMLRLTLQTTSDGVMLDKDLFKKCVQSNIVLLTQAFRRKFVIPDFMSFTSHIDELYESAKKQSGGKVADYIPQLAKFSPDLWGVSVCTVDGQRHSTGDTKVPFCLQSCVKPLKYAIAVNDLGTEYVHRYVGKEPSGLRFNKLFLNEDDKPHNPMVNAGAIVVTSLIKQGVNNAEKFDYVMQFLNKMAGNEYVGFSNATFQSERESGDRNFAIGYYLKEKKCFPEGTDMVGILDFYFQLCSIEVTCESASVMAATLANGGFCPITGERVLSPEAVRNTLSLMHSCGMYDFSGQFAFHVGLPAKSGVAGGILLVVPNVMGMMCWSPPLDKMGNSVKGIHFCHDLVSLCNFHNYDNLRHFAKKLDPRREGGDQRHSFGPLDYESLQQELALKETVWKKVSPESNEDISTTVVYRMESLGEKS
The experiment in a line: glutaminase coupled endpoint assay (Example A). Type of assay: biochemical. To be noted: inhibition of glutaminase; IC50 tested in an assay of Example A or Example B. In short, it runs like this: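 Coupled endpoint read-out: glutamate from GAC is converted by excess GDH, and diaphorase recycles NADH to NAD while reducing resazurin to fluorescent resorufin, so loss of signal means inhibition. Compound in DMSO is preincubated with enzyme for 60 min at room temperature before substrate is added. Hits are counterscreened against GDH/diaphorase alone.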
Turning to `O=C(CCC(=O)c1ccccc1)Nc1nnc(CCCCc2nnc(NC(=O)CCC(=O)c3ccccc3)s2)s1` [Compound 112, N,N′-(5,5′-(butane-1,4-diyl)bis(1,3,4-thiadiazole-5,2-diyl))bis(4-oxo-4-phenylbutanamide)], the IC50 (in general, the concentration at which inhibition is half-maximal) lay within 100 to 500 nM.
To `O=C(Cc1ccc(Cl)cc1)Nc1nnc(CCCCc2nnc(NC(=O)Cc3ccc(Cl)cc3)s2)s1` [Compound 113, N,N′-(5,5′-(butane-1,4-diyl)bis(1,3,4-thiadiazole-5,2-diyl))bis(2-(4-chlorophenyl)acetamide)] belongs 100 to 500 nM; to `Cc1ccccc1CC(=O)Nc1nnc(CCCCc2nnc(NC(=O)Cc3ccccc3C)s2)s1` [Compound 114, N,N′-(5,5′-(butane-1,4-diyl)bis(1,3,4-thiadiazole-5,2-diyl))bis(2-o-tolylacetamide)], 100 to 500 nM; to `CC(C)CC(=O)Nc1nnc(CCCCc2nnc(NC(=O)CC(C)C)s2)s1` [Compound 115, N,N′-(5,5′-(butane-1,4-diyl)bis(1,3,4-thiadiazole-5,2-diyl))bis(3-methylbutanamide)], 500 to 1000 nM.
`Cc1[nH]c2ccccc2c1CC(=O)Nc1nnc(CCCCc2nnc(NC(=O)Cc3c(C)[nH]c4ccccc34)s2)s1` [Compound 116, N,N′-(5,5′-(butane-1,4-diyl)bis(1,3,4-thiadiazole-5,2-diyl))bis(2-(2-methyl-1H-indol-3-yl)acetamide)]: the IC50 was < 100 nM.
In turn, `COc1ccc(CC(=O)Nc2nnc(CCCCc3nnc(NC(C)=O)s3)s2)cc1OC` [Compound 118, N-(5-(4-(5-acetamido-1,3,4-thiadiazol-2-yl)butyl)-1,3,4-thiadiazol-2-yl)-2-(3,4-dimethoxyphenyl)acetamide] gave an IC50 of 100 to 500 nM.
Regarding `COc1ccc(CC(=O)Nc2nnc(CCCCc3nnc(NC(=O)Cc4ccc(OC)cc4OC)s3)s2)c(OC)c1` [Compound 119, N,N′-(5,5′-(butane-1,4-diyl)bis(1,3,4-thiadiazole-5,2-diyl))bis(2-(2,4-dimethoxyphenyl)acetamide)], the IC50 was < 100 nM.
To `O=C(CC1CCCCC1)Nc1nnc(CCCCc2nnc(NC(=O)CC3CCCCC3)s2)s1` [Compound 121, N,N′-(5,5′-(butane-1,4-diyl)bis(1,3,4-thiadiazole-5,2-diyl))bis(2-cyclohexylacetamide)] belongs 100 to 500 nM; to `Cn1nc(CC(=O)Nc2nnc(CCCCc3nnc(NC(=O)Cc4nn(C)c5ccccc45)s3)s2)c2ccccc21` [Compound 122, N,N′-(5,5′-(butane-1,4-diyl)bis(1,3,4-thiadiazole-5,2-diyl))bis(2-(1-methyl-1H-indazol-3-yl)acetamide)], < 100 nM; to `O=C(Cc1cccc2[nH]ccc12)Nc1nnc(CCCCc2nnc(NC(=O)Cc3cccc4[nH]ccc34)s2)s1` [Compound 123, N,N′-(5,5′-(butane-1,4-diyl)bis(1,3,4-thiadiazole-5,2-diyl))bis(2-(1H-indol-4-yl)acetamide)], < 100 nM.
With `O=C(Cc1c[nH]c2ccncc12)Nc1nnc(CCCCc2nnc(NC(=O)Cc3c[nH]c4ccncc34)s2)s1` [Compound 124, N,N′-(5,5′-(butane-1,4-diyl)bis(1,3,4-thiadiazole-5,2-diyl))bis(2-(1H-pyrrolo[3,2-c]pyridin-3-yl)acetamide)], the IC50 is < 100 nM.
Regarding `O=C(Cc1c[nH]c2cnccc12)Nc1nnc(CCCCc2nnc(NC(=O)Cc3c[nH]c4cnccc34)s2)s1` [Compound 125, N,N′-(5,5′-(butane-1,4-diyl)bis(1,3,4-thiadiazole-5,2-diyl))bis(2-(1H-pyrrolo[2,3-c]pyridin-3-yl)acetamide)], the IC50 was < 100 nM.
To `O=C(Cc1n[nH]c2ccccc12)Nc1nnc(CCCCc2nnc(NC(=O)Cc3n[nH]c4ccccc34)s2)s1` [Compound 126, N,N′-(5,5′-(butane-1,4-diyl)bis(1,3,4-thiadiazole-5,2-diyl))bis(2-(1H-indazol-3-yl)acetamide)] belongs < 100 nM; to `O=C(Cc1c[nH]c2cccnc12)Nc1nnc(CCCCc2nnc(NC(=O)Cc3c[nH]c4cccnc34)s2)s1` [Compound 127, N,N′-(5,5′-(butane-1,4-diyl)bis(1,3,4-thiadiazole-5,2-diyl))bis(2-(1H-pyrrolo[3,2-b]pyridin-3-yl)acetamide)], < 100 nM.
Then `CC(=O)Nc1nnc(CCCCc2nnc(NC(=O)c3ccc4[nH]c(C)nc4c3)s2)s1` [Compound 128, N-(5-(4-(5-acetamido-1,3,4-thiadiazol-2-yl)butyl)-1,3,4-thiadiazol-2-yl)-2-methyl-1H-benzo[d]imidazole-5-carboxamide], with < 100 nM.
To `COc1ccc2[nH]cc(CC(=O)Nc3nnc(CCCCc4nnc(NC(C)=O)s4)s3)c2c1` [Compound 129] belongs < 100 nM; to `Cn1cc(CC(=O)Nc2nnc(CCCCc3nnc(NC(=O)Cc4cn(C)c5ccccc45)s3)s2)c2ccccc21` [Compound 130, N,N′-(5,5′-(butane-1,4-diyl)bis(1,3,4-thiadiazole-5,2-diyl))bis(2-(1-methyl-1H-indol-3-yl)acetamide)], < 100 nM; to `COc1ccccc1CC(=O)Nc1nnc(CCCCc2nnc(NC(=O)Cc3ccccc3OC)s2)s1` [Compound 132, N,N′-(5,5′-(butane-1,4-diyl)bis(1,3,4-thiadiazole-5,2-diyl))bis(2-(2-methoxyphenyl)acetamide)], < 100 nM.
